Several values for one entry are separate records, joined by “and”; a condition that tells them apart may be missing. Equal entries are not always repeated.
Tests used:
A/PR/8/34 virus [1] = assay: Immunofluorescence staining of viral NP in influenza A virus-infected MDCK cells; settings: for NP/DAPI (%) ave: average of 9 wells
A/PR/8/34 virus [2] = assay: RT-qPCR of viral mRNAs (NP, NS1, PA, PB1, PB2, M2) in infected MDCK cells; assay type: cell-based, influenza A H1N1 virus
[3] = system: canine interferon-β (Ifn-β); assay: RT-qPCR of Ifn-β mRNA in MDCK cells with or without A/PR/8/34 virus; assay type: cell-based; settings: 12.5uM, relative to virus - DMSO; for MDCK IFN-b mRNA, ave: ave of #1-3 exp; for MDCK IFN-b mRNA, individual replicates: replicates 1-3 of #1, #2, #3 exp, listed as Cyclobakuchiol C
A/WSN/33 virus [4] = assay: Immunofluorescence staining of viral NP in influenza A virus-infected MDCK cells; settings: WSN
A/PR/8/34 virus [5] = assay type: cell-based; settings: 12.5 μM, 24h WB
Nrf2 = Nrf2 reporter assay (dual luciferase system) in MDCK cells; assay type: cell-based, canine; settings: 12.5uM, relative to DMSO trans+
Procedure: An Nrf2 reporter assay based on the dual luciferase system was performed as previously described. The plasmid pNQO1-ARE (antioxidant response element)-Fluc, provided by Yamamoto M., expressed a Firefly luciferase gene driven by Nrf2 activation, while the plasmid pRL-TK-Rluc vector (Promega, CA, USA) expressed a Renilla luciferase gene driven by the herpes simplex viral thymidine kinase promoter as an internal control. MDCK cells were seeded in a 24-well plate at 1 × 10^5 cells/well and transfected with pNQO1-ARE-luc (0.25 μg) and pRL-TK-Rluc (0.25 μg). At 24 h post-transfection, the cells were treated with 12.5 μM cyclobakuchiols A–D in the infection medium at 37°C under 5% CO2. DMSO (0.125%) and 12.5 μM 1 were used as negative and positive controls, respectively. Total RNA was extracted from the MDCK cell lysates after 24 h of incubation. The levels of Firefly and Renilla luciferase mRNAs were analyzed by RT-qPCR and normalized to that of β-actin mRNA.

A/WSN/33 virus [6] = assay: Influenza A viral growth assay (viral titer of culture media); assay type: cell-based, influenza A H1N1 virus; settings: A/WSN/33 (WSN), 12.5uM, average of #1-3 exp (n=9)
[7] = system: NAD(P)H quinone oxidoreductase 1 (Nqo1); assay: RT-qPCR of Nqo1 mRNA in MDCK cells with or without A/PR/8/34 virus; assay type: cell-based, canine; settings: 12.5uM, MDCK, relative to virus - DMSO; for NQO1 Canis lupus mRNA, ave: ave of #1-3 exp; for NQO1 Canis lupus mRNA, individual replicates: replicates 1-3 of #1, #2, #3 exp, listed as Cyclobakuchiol C
A/PR/8/34 virus [8] = assay: Influenza A viral growth assay (viral titer of culture media); assay type: cell-based, influenza A H1N1 virus; set-up: viral titer of culture media, individual replicate / viral titer of culture media, ave: unit not given here; settings: A/PR/8/34 (PR8), 12.5uM, average of #1-3 exp (n=9)
[9] = MDCK cells, PR8 virus, relative to DMSO (about 1), ave of #1-3 exp (9 values)
[10] = MDCK cells, PR8 virus, relative to DMSO, replicates 1-3 of #1, #2, #3 exp, listed as Cyclobakuchiol C
[11] = single experiment, listed as cyclo C

C=C[C@]1(C)CCC(C(C)(C)O)C(c2ccc(O)cc2)C1 (stereo in doubt) [cyclobakuchiol C]
NP/DAPI (%) ave (A/PR/8/34 virus [1]; A/PR/8/34, 3.13 uM): 6.545%
NP/DAPI (%) ave (A/PR/8/34 virus [1]; A/PR/8/34, 6.25 uM): 2.732%
NP/DAPI (%) ave (A/PR/8/34 virus [1]; A/PR/8/34, 12.5 uM): 1.281%
NP/DAPI (%) ave (A/PR/8/34 virus [1]; A/PR/8/34, 25 uM): 1.024%
IC50 (A/PR/8/34 virus [1]; Influenza A virus, PR/8, MDCK, read-out: half maximal (50%) inhibitory concentration (IC50)): 4.6 ± 2.2 µM
PR8 NP gene expression qPCR, ave (A/PR/8/34 virus [2]; MDCK PR8, NP mRNA, relative (DMSO about 1), average of #1-3 exp (n=9)): 0.0715
PR8 NP gene expression qPCR, individual replicate (A/PR/8/34 virus [2]; MDCK PR8, NP mRNA, relative (DMSO about 1), replicates of #1-3 exp, listed as Cyclobakuchiol C): 0.02965 and 0.0515 and 0.04036 and 0.08601 and 0.1343 and 0.1201 and 0.1206 and 0.03078 and 0.03024
PR8 NS1 gene expression qPCR, ave (A/PR/8/34 virus [2]; MDCK PR8, NS1 mRNA, relative (DMSO about 1), average of #1-3 exp (n=9)): 0.04238
PR8 NS1 gene expression qPCR, individual replicate (A/PR/8/34 virus [2]; MDCK PR8, NS1 mRNA, relative (DMSO about 1), replicates of #1-3 exp, listed as Cyclobakuchiol C): 0.02453 and 0.03462 and 0.02897 and 0.02312 and 0.08062 and 0.06227 and 0.07687 and 0.03138 and 0.01906
PR8 PA gene expression qPCR, ave (A/PR/8/34 virus [2]; MDCK PR8, PA mRNA, relative (DMSO about 1), average of #1-3 exp (n=9)): 0.04976
PR8 PA gene expression qPCR, individual replicate (A/PR/8/34 virus [2]; MDCK PR8, PA mRNA, relative (DMSO about 1), replicates of #1-3 exp, listed as Cyclobakuchiol C): 0.02841 and 0.03504 and 0.0209 and 0.04366 and 0.1014 and 0.08076 and 0.0804 and 0.03232 and 0.02491
PR8 M2 gene expression qPCR, ave (A/PR/8/34 virus [2]; [9]): 0.05203
PR8 PB1 gene expression qPCR, ave (A/PR/8/34 virus [2]; [9]): 0.0394
PR8 PB2 gene expression qPCR, ave (A/PR/8/34 virus [2]; [9]): 0.05178
PR8 M2 gene expression qPCR, individual replicates (A/PR/8/34 virus [2]; [10]): 0.02539 and 0.04593 and 0.02488 and 0.06301 and 0.1078 and 0.07697 and 0.07009 and 0.03046 and 0.02377
PR8 PB1 gene expression qPCR, individual replicates (A/PR/8/34 virus [2]; [10]): 0.02851 and 0.01826 and 0.01255 and 0.01866 and 0.09078 and 0.07015 and 0.07353 and 0.02182 and 0.02034
PR8 PB2 gene expression qPCR, individual replicates (A/PR/8/34 virus [2]; [10]): 0.02749 and 0.04527 and 0.0229 and 0.05473 and 0.1042 and 0.07786 and 0.07787 and 0.03099 and 0.02468
MDCK IFN-b mRNA, ave ([3]; virus +): 8.927
MDCK IFN-b mRNA, individual replicates ([3]; virus +): 3.309 and 15.7023 and 10.0086 and 14.1468 and 10.7403 and 6.351 and 9.878 and 6.251 and 3.957
MDCK IFN-b mRNA, ave ([3]; virus -): 1.684
MDCK IFN-b mRNA, individual replicates ([3]; virus -): 0.8094 and 4.073 and 2.562 and 3.148 and 0.7696 and 1.281 and 1.389 and 0.8375 and 0.2824
NP/DAPI (%) ave (A/WSN/33 virus [4]; 3.13uM, ave of 9 values (3 exp)): 25.0115%
NP/DAPI (%) ave (A/WSN/33 virus [4]; 6.25uM, ave of 9 values (3 exp)): 26.7813%
NP/DAPI (%) ave (A/WSN/33 virus [4]; 12.5uM, ave of 9 values (3 exp)): 26.2263%
NP/DAPI (%) ave (A/WSN/33 virus [4]; 25uM, ave of 9 values (3 exp)): 34.9195%
NP/DAPI (%) ave (A/WSN/33 virus [4]; ave summary, 3.13%): 25.0115%
NP/DAPI (%) ave (A/WSN/33 virus [4]; ave summary, 6.25%): 26.7813%
NP/DAPI (%) ave (A/WSN/33 virus [4]; ave summary, 12.50%): 26.2263%
NP/DAPI (%) ave (A/WSN/33 virus [4]; ave summary, 25%): 34.9195%
NP/b-actin ave (A/PR/8/34 virus [5]; average of 3 experiments): 0.8052
NS1/b-actin ave (A/PR/8/34 virus [5]; average of 3 experiments): 0.5534
NP mean (western blot signal intensity, ImageJ) (A/PR/8/34 virus [5]; [11]): 91.764 and 95.052 and 111.845
NP/b-actin (A/PR/8/34 virus [5]; [11]): 0.819 and 0.7 and 0.8964
NS1/b-actin (A/PR/8/34 virus [5]; [11]): 0.4287 and 0.5327 and 0.6988
NS1 mean (western blot signal intensity, ImageJ) (A/PR/8/34 virus [5]; [11]): 69.827 and 74.096 and 58.545
pNQO1-ARE-Luc NRF2 reporter assay, ave (Nrf2; ave of #1-3 exp): 1.343
pNQO1-ARE-Luc NRF2 reporter assay, individual replicates (Nrf2; two values each of #1, #2, #3 exp, listed as Cyclobakuchiol C): 1.496 and 1.13 and 1.492 and 1.034 and 1.043 and 1.865
viral titer of culture media, ave (A/WSN/33 virus [6]; 12h): 8288.89
viral titer of culture media, ave (A/WSN/33 virus [6]; 24h): 21277778
viral titer of culture media, ave (A/WSN/33 virus [6]; 48h): 246888889
viral titer of culture media, ave (A/WSN/33 virus [6]; 72h): 155211111
NQO1 Canis lupus mRNA, ave ([7]; virus + (PR8)): 1.3
NQO1 Canis lupus mRNA, individual replicates ([7]; virus + (PR8)): 1.5721 and 1.53 and 1.546 and 1.742 and 0.864 and 0.8958 and 0.9507 and 1.371 and 1.2312
NQO1 Canis lupus mRNA, ave ([7]; virus -): 1.195
NQO1 Canis lupus mRNA, individual replicates ([7]; virus -): 1.246 and 1.375 and 1.298 and 1.334 and 1.006 and 1.078 and 1.116 and 1.24 and 1.059
viral titer of culture media, ave (A/PR/8/34 virus [8]; 12h): 33333.3
viral titer of culture media, ave (A/PR/8/34 virus [8]; 24h): 52222.2
viral titer of culture media, ave (A/PR/8/34 virus [8]; 48h): 37777.8
viral titer of culture media, ave (A/PR/8/34 virus [8]; 72h): 43333.3
